Source: patent publication US9296725B2, “Heterocyclyl pyrimidine analogues as TYK2 inhibitors” (Cellzome Limited, priority 2012, dated 2016)
Like-named read-outs stand apart in the source and are kept apart here.

Legend:
TYK2 = molecular target: T1, TYK2 (Homo sapiens, UniProt P29597); experiment: Kinobeads assay, TYK2 (competition binding in mixed Molt4/Ramos cell lysate, dot blot detection)
T1 construct: endogenous in cells; host or cells: Molt4 (ATCC CRL-1582) and Ramos (ATCC CRL-1596), mixed lysate 1:2
Summary of the method: (§1)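 Competition binding: compound dilutions (1:3 series, 9 steps) plus immobilized aminopyrido-pyrimidine beads incubated 3 h in the cold with mixed Molt4/Ramos lysate (1:2) at 10 mg/mL protein. Bead-bound JAK2/TYK2 eluted and quantified by antibody dot blot with infrared detection; IC50 from dose-response curves.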

JAK2 = molecular target: T2, JAK2 (Homo sapiens, UniProt O60674); experiment: Kinobeads assay, JAK2 (competition binding in mixed Molt4/Ramos cell lysate, dot blot detection); conditions: read-out: JAK2 Band (Kinobeads assay potency, IC50)
T2 construct: endogenous in cells; host or cells: Molt4 (ATCC CRL-1582) and Ramos (ATCC CRL-1596), mixed lysate 1:2
Summary of the method: as §1

[1] = Kinobeads assay, Molt4/Ramos lysate, read-out: TYK2 Band (Kinobeads assay potency, IC50)

T1 sequence (P29597 whole entry): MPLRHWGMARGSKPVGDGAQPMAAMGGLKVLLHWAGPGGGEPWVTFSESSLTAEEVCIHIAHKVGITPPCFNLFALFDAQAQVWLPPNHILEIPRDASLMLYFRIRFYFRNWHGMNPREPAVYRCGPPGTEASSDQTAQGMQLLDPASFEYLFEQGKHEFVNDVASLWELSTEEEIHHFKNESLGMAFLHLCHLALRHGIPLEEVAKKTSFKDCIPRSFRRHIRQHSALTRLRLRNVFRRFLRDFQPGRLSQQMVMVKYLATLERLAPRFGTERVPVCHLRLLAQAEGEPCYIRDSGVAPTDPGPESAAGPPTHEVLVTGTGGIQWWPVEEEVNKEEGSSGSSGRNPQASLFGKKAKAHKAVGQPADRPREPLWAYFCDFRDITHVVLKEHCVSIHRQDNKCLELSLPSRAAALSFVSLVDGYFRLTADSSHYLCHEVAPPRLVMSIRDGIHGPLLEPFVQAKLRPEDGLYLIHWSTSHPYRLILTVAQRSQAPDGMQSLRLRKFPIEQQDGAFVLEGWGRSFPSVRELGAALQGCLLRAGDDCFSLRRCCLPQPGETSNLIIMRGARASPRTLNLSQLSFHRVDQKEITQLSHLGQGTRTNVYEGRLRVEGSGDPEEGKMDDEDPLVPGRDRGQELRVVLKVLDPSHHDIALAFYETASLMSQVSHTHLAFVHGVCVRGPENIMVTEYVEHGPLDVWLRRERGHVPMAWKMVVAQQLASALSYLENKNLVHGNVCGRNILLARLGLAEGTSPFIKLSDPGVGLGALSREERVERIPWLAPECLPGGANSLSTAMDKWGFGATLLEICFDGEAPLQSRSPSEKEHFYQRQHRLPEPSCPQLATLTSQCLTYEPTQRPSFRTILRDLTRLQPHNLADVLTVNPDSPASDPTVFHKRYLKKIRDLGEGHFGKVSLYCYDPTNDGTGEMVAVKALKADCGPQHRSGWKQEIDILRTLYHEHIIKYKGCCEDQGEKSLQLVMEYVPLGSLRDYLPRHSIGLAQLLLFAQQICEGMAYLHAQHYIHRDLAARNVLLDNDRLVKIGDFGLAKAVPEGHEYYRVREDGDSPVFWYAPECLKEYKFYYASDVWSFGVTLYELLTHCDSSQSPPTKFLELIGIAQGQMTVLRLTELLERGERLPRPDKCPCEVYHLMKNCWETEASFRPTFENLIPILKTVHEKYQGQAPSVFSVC
T2 sequence (O60674 whole entry): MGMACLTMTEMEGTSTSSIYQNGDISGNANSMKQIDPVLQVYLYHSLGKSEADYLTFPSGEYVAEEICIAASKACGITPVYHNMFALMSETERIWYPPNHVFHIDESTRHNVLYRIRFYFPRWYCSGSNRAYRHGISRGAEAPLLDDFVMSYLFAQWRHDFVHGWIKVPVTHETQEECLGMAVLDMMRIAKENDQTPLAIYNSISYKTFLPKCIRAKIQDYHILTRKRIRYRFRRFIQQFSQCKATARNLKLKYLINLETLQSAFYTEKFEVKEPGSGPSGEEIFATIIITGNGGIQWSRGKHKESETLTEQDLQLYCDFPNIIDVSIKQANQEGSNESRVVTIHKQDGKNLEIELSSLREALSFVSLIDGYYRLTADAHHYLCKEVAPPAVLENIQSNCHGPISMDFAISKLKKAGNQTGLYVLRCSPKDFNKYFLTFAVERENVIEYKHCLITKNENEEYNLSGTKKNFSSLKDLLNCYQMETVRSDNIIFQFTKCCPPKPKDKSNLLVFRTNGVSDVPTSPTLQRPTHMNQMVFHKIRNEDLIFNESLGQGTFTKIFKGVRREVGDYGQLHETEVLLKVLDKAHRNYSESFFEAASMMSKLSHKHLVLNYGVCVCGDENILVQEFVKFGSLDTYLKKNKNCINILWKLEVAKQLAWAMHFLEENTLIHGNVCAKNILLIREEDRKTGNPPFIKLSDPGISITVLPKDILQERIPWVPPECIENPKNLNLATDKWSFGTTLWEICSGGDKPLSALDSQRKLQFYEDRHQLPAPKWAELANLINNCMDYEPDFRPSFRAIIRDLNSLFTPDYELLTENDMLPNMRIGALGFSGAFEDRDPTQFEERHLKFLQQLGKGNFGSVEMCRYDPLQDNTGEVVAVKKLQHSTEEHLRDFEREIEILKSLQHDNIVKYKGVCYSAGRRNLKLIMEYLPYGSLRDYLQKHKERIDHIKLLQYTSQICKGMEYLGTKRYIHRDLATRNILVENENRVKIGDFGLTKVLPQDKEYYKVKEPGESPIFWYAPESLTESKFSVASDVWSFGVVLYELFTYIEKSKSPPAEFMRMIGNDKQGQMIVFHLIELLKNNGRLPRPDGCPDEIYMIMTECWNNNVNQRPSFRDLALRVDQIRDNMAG

| IC50 (TYK2; [1]) [nM] | IC50 (JAK2) [nM] | IC50 (TYK2; read-out: TYK2 IC50) [nM] | SMILES |
| --- | --- | --- | --- |
| 1000 to 10000 | 1000 to 10000 |  | FCCn1cc(Nc2ncc(Cl)c(NCc3ccccc3)n2)cn1 [Example I-461] |
| 10 to 100 | 1000 to 10000 |  | Cc1ccc(F)c(CNc2nc(Nc3cnn(CC(N)=O)c3)ncc2Cl)c1F [Example I-282] |
| 100 to 1000 | 1000 to 10000 |  | CS(=O)(=O)c1cccc(CNc2nc(Nc3cnn(CC(=O)NCCO)c3)ncc2Cl)c1 [Example I-441] |
| 10 to 100 | 1000 to 10000 |  | N#C[C@H]1CCN(C(=O)Cn2cc(Nc3ncc(Cl)c(NCc4ccccc4)n3)cn2)C1 [Example I-270] |
| 10 to 100 | 1000 to 10000 |  | NC(=O)Cn1cc(Nc2ncc(Cl)c(NCc3c(F)cc(F)cc3F)n2)cn1 [Example I-387] |
| ≤ 10 | 100 to 1000 |  | CN(C)C(=O)Cn1cc(Nc2ncc(Cl)c(NCc3c(F)ccc(F)c3F)n2)cn1 [Example I-360] |
| 10 to 100 | > 10000 |  | CC(C)NC(=O)Cn1cc(Nc2ncc(Cl)c(NCc3c(F)cc(F)cc3F)n2)cn1 [Example I-393] |
| 100 to 1000 | 1000 to 10000 |  | CN(Cc1cccc(CNc2nc(Nc3cnn(CC(=O)N4CCOCC4)c3)ncc2Cl)c1)S(C)(=O)=O [Example I-401] |
| 100 to 1000 | 1000 to 10000 |  | CC(C(N)=O)n1cc(Nc2ncc(Cl)c(NCc3ccccc3)n2)cn1 (centres unmarked) [Example I-285] |
| 10 to 100 | 100 to 1000 |  | CCOc1ccc(F)c(CNc2nc(Nc3cnn(CCO)c3)ncc2Cl)c1F [Example I-358] |
| 10 to 100 | 100 to 1000 |  | Cc1cnc(Nc2cnn(C)c2)nc1NCc1c(F)cccc1F [Example I-418] |
| 10 to 100 | 100 to 1000 |  | COc1ccc(F)c(CNc2nc(Nc3cnn(CC(=O)N4CCOCC4)c3)ncc2Cl)c1F [Example I-377] |
| 100 to 1000 | 1000 to 10000 |  | CN(Cc1cccc(CNc2nc(Nc3cnn(CCO)c3)ncc2Cl)c1)S(C)(=O)=O [Example I-398] |
| 100 to 1000 | 1000 to 10000 |  | OCCn1cc(Nc2ncc(Cl)c(NCc3cccnc3)n2)cn1 [Example I-255] |
| 100 to 1000 | 1000 to 10000 |  | Cn1cc(Nc2ncc(Cl)c(NCc3cc(C(F)(F)F)ccc3F)n2)cn1 [Example I-277] |
| 100 to 1000 | 1000 to 10000 |  | O=C(Cn1cc(Nc2ncc(Cl)c(NCc3ccccn3)n2)cn1)N1CCOCC1 [Example I-338] |
| 100 to 1000 | 100 to 1000 |  | Fc1cccc(F)c1CNc1nc(Nc2cnn(CC(F)F)c2)ncc1Cl [Example I-469] |
| 10 to 100 | 1000 to 10000 |  | Cn1cc(Nc2ncc(Cl)c(NCc3cc(OC(F)F)ccc3F)n2)cn1 [Example I-412] |
| 100 to 1000 | 100 to 1000 |  | CS(=O)(=O)c1ccccc1CNc1nc(Nc2cnn(CC(=O)N3CCOCC3)c2)ncc1Cl [Example I-453] |
| 100 to 1000 | 1000 to 10000 |  | CS(=O)(=O)NCc1cccc(CNc2nc(Nc3cnn(CCO)c3)ncc2F)c1 [Example I-415] |
| 10 to 100 | 1000 to 10000 |  | COc1cc(F)c(CNc2nc(Nc3cnn(CC(N)=O)c3)ncc2C)c(F)c1 [Example I-315] |
| 10 to 100 | 1000 to 10000 |  | Cn1cc(Nc2ncc(F)c(NCc3c(F)cc(F)cc3F)n2)cn1 [Example I-374] |
| ≤ 10 | 1000 to 10000 |  | CC(C)NC(=O)Cn1cc(Nc2ncc(F)c(NCc3c(F)ccc(F)c3F)n2)cn1 [Example I-455] |
| 10 to 100 | 1000 to 10000 |  | O=C(Cn1cc(Nc2nccc(NCc3c(F)cc(F)cc3F)n2)cn1)N[C@H]1C[C@H]1F [Example I-454] |
| 10 to 100 | 100 to 1000 |  | N#C[C@@H]1CCN(C(=O)Cn2cc(Nc3ncc(Cl)c(NCc4ccccc4)n3)cn2)C1 [Example I-271] |
| 10 to 100 | 1000 to 10000 |  | C[C@H](CO)NC(=O)Cn1cc(Nc2nccc(NCc3c(F)cc(F)cc3F)n2)cn1 [Example I-456] |

The remaining lines, values behind:

| SMILES | IC50 (TYK2; [1]) [nM] | IC50 (JAK2) [nM] | IC50 (TYK2; read-out: TYK2 IC50) [nM] |
| --- | --- | --- | --- |
| [2H]C([2H])(O)C([2H])([2H])n1cc(Nc2ncc(Cl)c(NCc3ccccc3)n2)cn1 [Example I-231] | 100 to 1000 | 1000 to 10000 |  |
| COc1ccc(S(C)(=O)=O)cc1CNc1nc(Nc2cnn(CC(F)F)c2)ncc1C [Example I-107] | 10 to 100 | 100 to 1000 |  |
| [2H]C([2H])(O)C([2H])([2H])n1cc(Nc2ncc(Cl)c(NCc3cccc(F)c3F)n2)cn1 [Example I-233] | 100 to 1000 | 1000 to 10000 |  |
| NC(=O)Cn1cc(Nc2ncc(F)c(NCc3c(F)cc(F)cc3F)n2)cn1 [Example I-157] | 10 to 100 | 1000 to 10000 |  |
| CCOC(=O)Cn1cc(Nc2ncc(Cl)c(NCc3ccccc3)n2)cn1 [Example I-225] | 100 to 1000 | 1000 to 10000 |  |
| CC(O)Cn1cc(Nc2ncc(Cl)c(NCc3cccc(F)c3F)n2)cn1 (centres unmarked) [Example I-215] | 100 to 1000 | 100 to 1000 |  |
| C[C@H](CO)NC(=O)Cn1cc(Nc2nccc(NCc3c(F)ccc(F)c3F)n2)cn1 [Example I-143] | 10 to 100 | 1000 to 10000 |  |
| CN(C)C(=O)Cn1cc(Nc2ncc(F)c(NCc3c(F)cc(F)cc3F)n2)cn1 [Example I-18] | 10 to 100 | 1000 to 10000 |  |
| O=C(Cn1cc(Nc2nccc(NCc3c(F)cccc3F)n2)cn1)NC1CC1 [Example I-152] | 10 to 100 | 1000 to 10000 |  |
| CNC(=O)Cn1cc(Nc2ncc(Cl)c(NCc3cccc(F)c3)n2)cn1 [Example I-212] | 100 to 1000 | 100 to 1000 |  |
| CC(C)NC(=O)Cn1cc(Nc2ncc(F)c(NCc3c(Cl)ccc(Cl)c3F)n2)cn1 [Example I-82] | 10 to 100 | 100 to 1000 |  |
| OCCn1cc(Nc2ncc(Cl)c(NCc3cc(F)cc(C(F)(F)F)c3)n2)cn1 [Example I-181] | 100 to 1000 | 1000 to 10000 |  |
| COc1ccc(F)c(CNc2nc(Nc3cnn(CC(=O)NC(C)C)c3)ncc2F)c1F [Example I-48] | ≤ 10 | 1000 to 10000 |  |
| O=C(Cn1cc(Nc2nccc(NCc3c(F)cc(F)cc3F)n2)cn1)NCC(F)F [Example I-92] | 10 to 100 | 1000 to 10000 |  |
| COc1cc(F)c(CNc2ccnc(Nc3cnn(CC(=O)NC(C)C)c3)n2)c(F)c1 [Example I-64] | 10 to 100 | > 10000 |  |
| Fc1cc(F)c(CNc2ccnc(Nc3cnn(CCN4CCOCC4)c3)n2)c(F)c1 [Example I-112] | 10 to 100 | 1000 to 10000 | < 100 |
| COc1ccc(F)c(CNc2nc(Nc3cnn(CC(=O)N(C)C)c3)ncc2C)c1F [Example I-20] | ≤ 10 | 100 to 1000 |  |
| O=C(Cn1cc(Nc2nccc(NCc3c(F)cccc3Cl)n2)cn1)NC1CC1 [Example I-139] | ≤ 10 | 1000 to 10000 |  |
| COc1ccc(F)c(CNc2ccnc(Nc3cnn(CC(=O)N[C@H](C)CO)c3)n2)c1F [Example I-124] | 10 to 100 | 1000 to 10000 |  |
| O=C(Cn1cc(Nc2nccc(NCc3c(F)ccc(F)c3F)n2)cn1)NC1CC1 [Example I-144] | ≤ 10 | 1000 to 10000 |  |
| Cc1cnc(Nc2cnn(CC(=O)NC3CCOC3)c2)nc1NCc1c(F)cc(F)cc1F (centres unmarked) [Example I-37] | 10 to 100 | 100 to 1000 |  |
| CC(NC(=O)Cn1cc(Nc2nccc(NCc3c(F)cc(F)cc3F)n2)cn1)C(F)F (centres unmarked) [Example I-149] | 10 to 100 | > 10000 |  |
| COc1cccc(CNc2nc(Nc3cnn(CCO)c3)ncc2Cl)c1 [Example I-186] | 100 to 1000 | 1000 to 10000 |  |
| CC(NC(=O)Cn1cc(Nc2nccc(NCc3c(F)cc(F)cc3F)n2)cn1)C1CCOC1 (centres unmarked) [Example I-105] | 10 to 100 | > 10000 |  |
